Measurements published in BindingDB's records for doi:10.1016/s0960-894x(00)00248-1 (University of Munich, 2000).

Molecular target: Beta-lactamase TEM (Escherichia coli, UniProt P62593)
Assay: ChEBML_39213
Description: Beta-Lactamase inhibition activity after 15 min of pre-incubation with the enzyme isolated from Escherichia coli 205 TEM

Sequence of Beta-lactamase TEM (P62593 whole entry): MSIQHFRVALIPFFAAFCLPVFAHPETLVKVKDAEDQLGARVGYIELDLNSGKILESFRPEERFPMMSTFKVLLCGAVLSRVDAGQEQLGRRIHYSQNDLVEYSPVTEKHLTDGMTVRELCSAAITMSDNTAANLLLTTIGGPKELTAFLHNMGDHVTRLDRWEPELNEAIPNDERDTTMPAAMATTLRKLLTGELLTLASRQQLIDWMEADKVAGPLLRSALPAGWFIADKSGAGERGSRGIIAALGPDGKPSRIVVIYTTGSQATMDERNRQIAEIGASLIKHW

COC1=C(C(=O)O)N2C(=O)[C@H]([C@@H](C)O)[C@H]2C1 [Potassium; (5R,6S)-6-((R)-1-hydroxy-ethyl)-3-methoxy-7-oxo-1-aza-bicyclo[3.2.0]hept-2-ene-2-carboxylate]
IC50: 340 µM
